Reference: publication PMC9918429, “ATX-101, a cell-penetrating protein targeting PCNA, can be safely administered as intravenous infusion in patients and shows clinical activity in a Phase 1 study” (Oncogene, 2022)
“Also recorded” adds a separate entry of the source. Ends that are not written are not given here.

Key:
[1] = tested on: cell cultures; details: cited from earlier work
[2] = tested on: advanced solid tumors; assay: Tumor assessment by investigators according to RECIST V1.1; type: in vivo, human
Protocol: Tumors were assessed by investigators according to RECIST V1.1 at baseline, after 6 weeks and every 3 months thereafter. Efficacy Population: patients with at least one tumor assessment (RECIST) after treatment start

[3] = tested on: patients with advanced solid tumors; assay: Phase 1 first-in-human study, weekly intravenous ATX-101 infusion: adverse events, DLT, infusion-related reactions (CTCAE v4.03); type: in vivo
Protocol: Here we report results of the ATX-101 first-in-human study in patients with advanced solid tumors. This open-label, single arm Phase 1 study, consisting of two sub-studies, investigated 4 doses of ATX-101 (20, 30, 45, and 60 mg/m^2) administered intravenously every week. In a first, dose-escalation study pre-defined dose-limiting toxicities and PK were assessed (for DLT definition see Supplementary Table 1). If, after 6 weeks, no tumor progression was measured, treatment could be continued in a second, long-term follow-up study until disease progression or unacceptable toxicity with the primary objective safety/tolerability. Efficacy was a secondary endpoint in both sub-studies. The studies were registered in the Australian New Zealand Clinical Trials Registry (ANZCTR) under the following IDs: 375262 and 375319. Details on methods are given in the Supplementary information.
This Phase 1, open-label, single arm, first-in-human study consisted of two sub-studies. Study ATX101-01 was a dose escalation study in accordance with the traditional 3+3 escalation design^1. Patients were treated over 6 weeks when the first tumor assessment was done. In case of disease stabilization or tumor response, patients could continue treatment in the long-term follow-up study ATX101-02. The data analysis has been combined for both studies.
ATX-101 was administered weekly as intravenous infusion.
Due to the occurrence of infusion related reactions (IRR) in the first patient, a premedication was implemented for subsequent patients. Premedication was optimized by the Safety Monitoring Committee (SMC) during the study resulting in the final recommendation to administer corticosteroids, paracetamol, H1 and H2 inhibitors. This medication became standard practice in Cohort 3. Montelukast (anti-leukotriene) was added in Cohort 4. In addition, on each infusion day, the infusion rate had to be increased in 5 steps from 5 mg/h to a maximum of 120 mg/h.
ATX-101 was administered in 4 dosing cohorts. The starting dose was 20 mg/m², escalated to 30 mg/m², 45 mg/m² and 60 mg/m². An SMC, comprising all principal investigators and medical monitors of sponsor and CRO, recommended dose changes and modifications after the end of each completed cohort and during the entire study.
Toxicities were graded as mild, moderate, severe, life threatening or related to death using the Common Terminology Criteria for Adverse Events (CTCAE) Version 4.03. Safety assessments included the incidence of dose limiting toxicities (DLTs), treatment-emergent adverse events (TEAE), laboratory parameters, ECG, performance status, physical examinations. DLT were defined upfront, the DLT period included the first three treatment weeks.

[4] = Full-length peptide in cell culture media after peptide addition; type: in vitro ADME; details: cell cultures, 1–2 h after the peptide addition; unpublished data
[5] = Plasma pharmacokinetics of ATX-101 on first infusion day, non-compartmental (Phoenix WinNonlin); details: for tmax Median [Min;Max]: from infusion start
Protocol: Blood samples for a complete pharmacokinetic (PK) profile were collected on the first infusion day. On days 8, 15, and 36 samples were collected during the infusion only. Plasma trough levels were assessed on Days 3 and Day 43.
Primary PK Population: patients with at least 2 measurable plasma concentration time points after the end of infusion on D1

[6] = 30 mg/m^2 i.v. infusion, first infusion day, plasma, primary PK population, n = 1
[7] = 45 mg/m^2 i.v. infusion, first infusion day, plasma, primary PK population, mean (SD), n = 4
[8] = 60 mg/m^2 i.v. infusion, first infusion day, plasma, primary PK population, mean (SD), n = 6
[9] = 60 mg/m^2 i.v. infusion, first infusion day, plasma, primary PK population, mean (SD), n = 8

Ac-MDRWLVKWKKKRKIRRRRRRRRRRR (N-terminus assumed) [ATX-101]
Duration of activity (inhibition of growth, increased apoptosis) after addition of the peptide [1]: up to five days
Median time to treatment discontinuation ([2]; 12 patients of long-term follow-up study, range [7–74]): 18 weeks
Stable disease at the end of the dose escalation study ([2]; Efficacy Population (n = 20), after 6 weeks, RECIST V1.1): 70%
Disease stabilization over at least 4.1 months ([2]; Efficacy Population, Cohort 1 (20 mg/m^2)): 50%
Disease stabilization over at least 4.1 months ([2]; Efficacy Population, Cohort 2 (30 mg/m^2)): 33.3%
Disease stabilization over at least 4.1 months ([2]; Efficacy Population, Cohort 3 (45 mg/m^2)): 50%
Disease stabilization over at least 4.1 months ([2]; Efficacy Population, Cohort 4 (60 mg/m^2)): 33.3%
Partial or complete tumor responses ([2]; Efficacy Population, RECIST V1.1): No tumor responses were observed; also recorded: No partial or complete responses were observed
Stable disease at treatment discontinuation ([2]; long-term follow-up, 5 of 12 patients): 41.7%
Progressive disease at treatment discontinuation ([2]; long-term follow-up, 7 of 12 patients): 58.3%
TEAE: Upper respiratory tract infection ([3]; Overall (n=25), Any Grade): 3 (12.0) n (%)
TEAE: Abdominal pain upper ([3]; Overall (n=25), Grade 3): 1 (4.0) n (%)
TEAE: Anemia ([3]; Overall (n=25), Grade 3): 4 (16.0) n (%)
TEAE: Fatigue ([3]; Overall (n=25), Grade 3): 1 (4.0) n (%)
TEAE: Hyperglycemia ([3]; Overall (n=25), Grade 3): 2 (8.0) n (%)
TEAE: Patients with at least one event ([3]; Overall (n=25), Grade 3): 15 (60.0) n (%)
Patients with infusion-related reactions (mild and moderate) ([3]; all 25 patients, 20-60 mg/m^2 weekly, despite premedication and stepwise infusion rate): 64%
TEAE of CTCAE grade 4/5 ([3]; all cohorts (n=25)): CTCAEs grade 4/5 were not observed
Maximum tolerated dose ([3]; doses up to 60 mg/m^2 weekly): not reached
Dose-limiting toxicities (DLT) ([3]; in vivo): not observed
IRR Grade 1 (mild), number of patients with IRR ([3]; in vivo): 9 (36.0) n (%)
IRR Grade 1 (mild), total number of IRRs ([3]; in vivo): 17 N
IRR Grade 2 (moderate), number of patients with IRR ([3]; in vivo): 13 (52.0) n (%)
IRR Grade 2 (moderate), total number of IRRs ([3]; in vivo): 45 N
IRR any grade, total number of IRRs ([3]; in vivo): 62 N
IRR: Patients with at least one event, number of patients with IRR ([3]; in vivo): 16 (64.0) n (%)
Patients with IRR in whom IRR was seen on the first infusion day ([3]; in vivo): 83%
TEAE: Abdominal pain upper ([3]; in vivo): 3 (12.0) n (%)
TEAE: Anemia ([3]; in vivo): 8 (32.0) n (%)
TEAE: Diarrhea ([3]; in vivo): 7 (28.0) n (%)
TEAE: Dysgeusia ([3]; in vivo): 3 (12.0) n (%)
TEAE: Erythema ([3]; in vivo): 3 (12.0) n (%)
TEAE: Fatigue ([3]; in vivo): 12 (48.0) n (%)
TEAE: Headache ([3]; in vivo): 3 (12.0) n (%)
TEAE: Hyperglycemia ([3]; in vivo): 3 (12.0) n (%)
TEAE: Infusion related reactions ([3]; in vivo): 16 (64.0) n (%)
TEAE: Insomnia ([3]; in vivo): 3 (12.0) n (%)
TEAE: Nausea ([3]; in vivo): 4 (16.0) n (%)
TEAE: Patients with at least one event ([3]; in vivo): 25 (100.0) n (%)
TEAE: Pyrexia ([3]; in vivo): 4 (16.0) n (%)
TEAE: Vascular access site bruising ([3]; in vivo): 3 (12.0) n (%)
Treatment-related TEAE: Anemia ([3]; in vivo): 2 (8.0) n (%)
Treatment-related TEAE: Diarrhea ([3]; in vivo): 4 (16.0) n (%)
Treatment-related TEAE: Dysgeusia ([3]; in vivo): 3 (12.0) n (%)
Treatment-related TEAE: Erythema ([3]; in vivo): 2 (8.0) n (%)
Treatment-related TEAE: Fatigue ([3]; in vivo): 8 (32.0) n (%)
Treatment-related TEAE: Flushing ([3]; in vivo): 2 (8.0) n (%)
Treatment-related TEAE: Hyperglycemia ([3]; in vivo): 2 (8.0) n (%)
Treatment-related TEAE: Infusion-related reactions ([3]; in vivo): 16 (64.0) n (%)
Treatment-related TEAE: Patients with at least 1 event ([3]; in vivo): 23 (92.0) n (%)
Treatment-related adverse events of grade 3 ([3]; in vivo): one grade 3 adverse event
Vital signs, ECG, and laboratory values ([3]; in vivo): didn’t show a trend of changes
Recommended phase 2 dose (RP2D), monotherapy ([3]; in vivo, iv): 60 mg/m^2
Full-length peptide in the culture media [4]: no full-length peptide was found
tmax Median [Min;Max] ([5]; 20 mg/m^2 i.v. infusion, first infusion day, plasma, primary PK population, n = 1): 2.02 [N/A] h
tmax Median [Min;Max] [5, 6]: 2.98 [N/A] h
CL [5, 6]: 14,400 mL/h/m^2
Vz [5, 6]: 7970 mL/m^2
kel [5, 6]: 1.81 h⁻¹
tmax Median [Min;Max] ([5]; 45 mg/m^2 i.v. infusion, first infusion day, plasma, primary PK population, median [min;max], n = 4): 2.37 [1.32;2.82] h
AUC0-t [5, 7]: 1980 (427) h × ng/mL
AUC(0-inf) [5, 7]: 2200 (591) h × ng/mL
CL [5, 7]: 21,500 (6120) mL/h/m^2
Cmax [5, 7]: 1150 (166) ng/mL
Vz [5, 7]: 13,100 (6830) mL/m^2
kel [5, 7]: 2.25 (1.57) /h
tmax Median [Min;Max] ([5]; 60 mg/m^2 i.v. infusion, first infusion day, plasma, primary PK population, median [min;max], n = 8): 4.75 [1.60;9.12] h
CL [5, 8]: 17,800 (5880) mL/h/m^2
MRT0-inf [5, 8]: 1.54 (0.66) h
Vz [5, 8]: 12,900 (5520) mL/m^2
kel [5, 8]: 1.51 (0.46) /h
AUC0-t [5, 9]: 3320 (1260) h × ng/mL
Cmax [5, 9]: 1320 (815) ng/mL
Elimination half-life in blood ([5]; all dose levels (20, 30, 45, 60 mg/m^2)): less than 30 min
AUC0-t ([5]; human, plasma, iv, 20 mg/m2): 666 ng·h/mL
Cmax ([5]; human, plasma, iv, 20 mg/m2): 468 ng/mL
AUC0-t ([5]; human, plasma, iv, 30 mg/m2): 1900 ng·h/mL
AUC(0-inf) ([5]; human, plasma, iv, 30 mg/m2): 2080 ng·h/mL
Cmax ([5]; human, plasma, iv, 30 mg/m2): 720 ng/mL
MRT ([5]; human, plasma, iv, 30 mg/m2): 36.7 min
MRT ([5]; human, plasma, iv, 45 mg/m2): 53.3 min
AUC(0-inf) ([5]; human, plasma, iv, 60 mg/m2): 3700 ng·h/mL
